These results are taken from patent publication US11708338B2, “Substituted phenyl sulfonyl phenyl triazole thiones and uses thereof” (Neuropore Therapies, Inc., priority 2017, dated 2023).

Holding throughout (type): in vivo, mouse
Experiment [1] relates to microtubule-associated protein 1A/1B-light chain 3 (LC3). Nature of the experiment: LC3 immunolabeling (IHC) in brain, 1 month administration study. Particulars: L61 ASYN transgenic mice, 1, 5 or 10 mg/kg per day i.p. As for the experimental part:
(§1) Alpha-synuclein (ASYN) is a neuronal protein whose dysregulation has been implicated in the pathogenesis of PD. The effects of Compound 1 on alpha-synuclein aggregation were assessed in both L61 ASYN transgenic and non-transgenic mice in a 1 month administration study. L61 ASYN transgenic mice (36 total mice, n=8-11 mice per treatment group) were injected (i.p.) with 1, 5, or 10 mg/kg of Compound 1 or a vehicle control (5% DMSO+20% Cremphor EL+0.9% normal saline) per day for 1 month. Non-transgenic mice (18 total mice, n=8-11 mice per treatment group) were used as a control and were injected daily (i.p.) with 10 mg/kg of Compound 1 or a vehicle control (5% DMSO+20% Cremphor EL+0.9% normal saline) per day for 1 month. At the end of one month, the mice were sacrificed, and immunohistochemical (IHC) detection of total alpha-synuclein deposits, insoluble alpha-synuclein deposits (PK+resistant), microtubule-associated protein 1A/1B-light chain 3 (LC3), and monomeric alpha-synuclein levels were assessed in the harvested brain tissues.

Experiment [2] deals with glial fibrillary acidic protein (GFAP). Briefly: GFAP IHC staining in sections containing hippocampus, 1 month administration study. The note with it: L61 ASYN transgenic mice. As for the experimental part:
Neuroinflammation is also associated with increased expression of glial fibrillary acidic protein (GFAP) in activated astrocytes, which is induced by a variety of molecules including pro-inflammatory mediators released from activated microglia (Saijo et al. 2009). Increased expression of glial fibrillary acidic protein (GFAP) represents astroglial activation and gliosis during neurodegeneration. (Brahmachari et al., 2006). The effects of Compound 1 on GFAP expression were assessed in both L61 ASYN transgenic and non-transgenic mice in a 1 month administration study. After 30 days, the mice were sacrificed, and IHC detection of GFAP was assessed in the harvested brain tissues.
The harvested brain tissues from treated mice were fixed (drop fixed in 4% PFA) and then sectioned into 40 micro thick sections using a vibratome. The representative sections containing the hippocampus were assessed for GFAP with standard immunohistochemistry staining. The general methods used for GFAP immunostaining follow those described in Rockenstein et al., J Neurosci Res. 2002, 68(5):568-78.

Experiment [3] relates to Translocator Protein (18 kDa) (TSPO). Nature of the experiment: TSPO immunofluorescence in cortex of L41 APP transgenic mice. Particulars: 5 mg/kg daily i.p. As for the experimental part: Neuroinflammation is associated with increased expression of the 18-kDa translocator protein (TSPO), which is present on the mitochondria of activated microglia, astroglia and macrophages (Crawshaw and Robertson 2017). The effects of Compound 1 on TSPO expression were assessed in both L41 APP transgenic and non-transgenic mice in a 1 month administration study. L41 APP transgenic mice (36 total mice, n=8-11 mice per treatment group) were injected (i.p.) daily with 5 mg/kg of Compound 1 or a vehicle control (5% DMSO+20% Cremphor EL+0.9% normal saline) for […]. Non-transgenic mice (18 total mice, n=8-11 mice per treatment group) were used as a control and were injected daily (i.p.) with 10 mg/kg of Compound 1 (data not shown) or a vehicle control (5% DMSO+20% Cremphor EL+0.9% normal saline) for 1 month. After 30 days, the mice were sacrificed, and immunofluoresence (IF) detection of TSPO were assessed in the harvested brain tissues.
The harvested brain tissues were drop fixed using 4% PFA and sectioned on a vibratome, and representative sections corresponding to the neuropil of cortex were assessed for TSPO with standard immunofluorescence (IF) staining.

A further experiment deals with monomeric ASYN. Briefly: ProteinSimple western biochemical evaluation of monomeric ASYN in cytosolic fraction of brain homogenates. The note with it: L61 ASYN transgenic mice, 1, 5 or 10 mg/kg per day i.p., 1 month. How it is done: (§2) Multiple in vivo administration studies of Compound 1 were carried out in the Line 61 (L61) mThy1-alpha-synuclein transgenic mouse model of Parkinson's disease (PD). The mThy1-alpha-synuclein transgenic mouse model overexpresses wild-type human ASYN under the Thy-1 promoter studies (commonly referred to as Line 61 transgenic mice; Rockenstein et al., 2002). […]
(§3) Alpha-synuclein (ASYN) is a neuronal protein whose dysregulation has been implicated in the pathogenesis of PD. The effects of Compound 1 on alpha-synuclein aggregation were assessed in both L61 ASYN transgenic and non-transgenic mice in a 1 month administration study. […] At the end of one month, the mice were sacrificed, and immunohistochemical (IHC) detection of total alpha-synuclein deposits, insoluble alpha-synuclein deposits (PK+resistant), microtubule-associated protein 1A/1B-light chain 3 (LC3), and monomeric alpha-synuclein levels were assessed in the harvested brain tissues.
Biochemical evaluations were conducted using a ProteinSimple© western biochemical evaluation. Briefly, samples were mixed with pre-calculated volumes of 0.1×Sample Buffer and 5×Fluorescent Master Mix to make a final sample concentration of 0.4 mg/mL in 10 μL solution for signal optimization and evaporation reduction. […]

The subject of experiment [4] is total alpha-synuclein (ASYN). Briefly: IHC quantification of total alpha-synuclein deposits in brain, 1 month administration study. Particulars: for reduction of total alpha-synuclein level in cortex as compared to vehicle control: L61 ASYN transgenic mice, FIG. 7A. As for the experimental part:
Multiple in vivo administration studies of Compound 1 were carried out in the Line 61 (L61) mThy1-alpha-synuclein transgenic mouse model of Parkinson's disease (PD). The mThy1-alpha-synuclein transgenic mouse model overexpresses wild-type human ASYN under the Thy-1 promoter studies (commonly referred to as Line 61 transgenic mice; Rockenstein et al., 2002). This transgenic mouse develops extensive accumulation of alpha-synuclein (ASYN) in areas relevant to PD (Rockenstein et al., 2002; Chesselet et al., 2012; Games et al., 2013), neurodegeneration including dopaminergic neurodegeneration, reduced dopamine (DA) and TH loss in the striatum (Masliah et al., 2000; Lam et al., 2011), and motor deficits (Fleming et al., 2004). Male transgenic and non-transgenic littermates (3-3.5 mo) were used for all in vivo studies presented here.
as §1
The quantification and IHC staining of total alpha-synuclein were performed using known techniques (Rockenstein et al., J Neurosci Res. 2002, 68(5):568-78; Tanji et al., Acta Neuropathol. 2010, 120, 145-154; Nuber et al., Brain. 2013, February; 136(Pt 2):412-32).

The test system of experiment [5] is insoluble alpha-synuclein deposits (PK+resistant). Nature of the experiment: IHC quantification of insoluble (PK+resistant) alpha-synuclein deposits in brain, 1 month administration study. Particulars: L61 ASYN transgenic mice, FIG. 9A. As for the experimental part: as §2, §3
The quantification and IHC staining of PK-resistant alpha-synuclein were performed using known techniques (Rockenstein et al., J Neurosci Res. 2002, 68(5):568-78; Tanji et al., Acta Neuropathol. 2010, 120, 145-154; Nuber et al., Brain. 2013, February; 136(Pt 2):412-32).

Where [6] appears, read: L61 ASYN transgenic mice, 1, 5 or 10 mg/kg per day i.p.

Consider `O=S(=O)(c1ccc(-n2cn[nH]c2=S)cc1)c1ccc(Cl)c(C(F)(F)F)c1` [Compound 1, 4-(4-((4-chloro-3-(trifluoromethyl)phenyl)sulfonyl)phenyl)-2,4-dihydro-3H-1,2,4-triazole-3-thione], for which, in experiment [1], the “levels of LC3 immunolabeling in cortex” value was “increased”, the “levels of LC3 immunolabeling in hippocampus (increase)” value is given as “not” and the “levels of LC3 immunolabeling in striatum” value is recorded as “increased”. Also, the “GFAP levels, IHC staining intensity in representative images (FIG. 16)” value in experiment [2] (5 mg/kg or 10 mg/kg daily i.p.) is given as “reducing cortical levels of GFAP”. In addition, the “GFAP levels, quantification (FIG. 17)” value in experiment [2] (10 mg/kg dose i.p. daily) is listed as “reduces the cortical GFAP levels in a statistically significant manner”. In addition, in experiment [3], the “cortical TSPO level vs vehicle-treated Line 41 mice, quantification (FIG. 20)” value is “reduces the TSPO level in a statistically significant manner”. Besides, in the experiment with monomeric ASYN, the “cortical levels of monomeric ASYN in cytosolic fraction of brain homogenates” value is “reduced” and the “hippocampal levels of monomeric ASYN in cytosolic fraction of brain homogenates” value is on record as “reduced”. In addition, the “reduction of total alpha-synuclein level in cortex as compared to vehicle control” value (shortened to “reduction of total alpha-synuclein level”) in experiment [4] (1 mg/kg per day i.p.) stood at 13%. Moreover, in experiment [4] (5 mg/kg per day i.p.), the “reduction of total alpha-synuclein level” value was 32%. Moreover, the “reduction of total alpha-synuclein level” value in experiment [4] (10 mg/kg per day i.p.) came out at 38%. In experiment [4] (setting [6]), the “total ASYN in the neuropil of cortex vs vehicle control” value was “reduced”, the “total ASYN in the neuropil of hippocampus vs vehicle control” value was “reduced” and the “total ASYN in the neuropil of striatum vs vehicle control” value is given as “reduced”. In addition, the “reduction of PK-resistant alpha synuclein levels in cortex as compared to vehicle-treated mice” value in experiment [5] (5 mg/kg daily i.p.) was determined as 37%. Moreover, the “reduction of PK-resistant alpha synuclein levels in cortex as compared to vehicle-treated mice” value in experiment [5] (10 mg/kg daily i.p.) was found to be 36%.
